“Also recorded” adds a separate entry of the source. Blank lines part the entries; values can stand above or below the molecule they belong to. Ends that are not written are not given here.
Tests used:
[1] = system: PDE1/4 chimera (PDE1B regulatory domain fused to the PDE4D catalytic domain); assay: PDE4 inhibitor inhibition of the PDE1/4 chimera (SPA); assay type: biochemical, human; conditions: [3H]-cAMP; for Inhibition of PDE1/4 chimera activity (in words) / Rolipram potency on PDE1/4 chimera relative to PDE4D catalytic domain (in words) / Rolipram affinity/potency boost on calcium/calmodulin-activated PDE1/4 chimera (in words): pH 7.2, 1 h, room temperature; for Rolipram potency on PDE1/4 chimera relative to PDE4D catalytic domain (in words): IC50, 3–5 independent experiments, without calcium/calmodulin activation; for Rolipram affinity/potency boost on calcium/calmodulin-activated PDE1/4 chimera (in words): chimera activated by calcium/calmodulin
Description: (§1) Human PDE1B1 (Refseq: NM_000924.4) and its N-terminal deletion constructs were cloned into BamH1 and Xho1 sites of pcDNA3.1(+) using PCR. The stated boundary and amino acid positions for mutants and deletion constructs are based on the PDE1B1 isoform (Refseq: NP_000915). For all N-terminal constructs, a start codon was introduced upstream of the indicated boundary, resulting in a methionine preceding the amino acid specified by the N-terminal boundaries. Point mutations and internal deletions were generated using the QuickChange^TM site-directed mutagenesis method, as previously described. The PDE1B-PDE4D chimera was generated by inserting the human PDE4D catalytic domain with a PCR-introduced N-terminal BspE1 site into a pcDNA3.1-PDE1B (82-end) construct using an internal BspE1 site at the junction of the regulatory and catalytic domain and an Xho1 site downstream of the stop codon. All constructs were validated through sequencing. Maps and sequences are available upon request. Alignments were generated using Geneious Prime (v 2024.0.7). Amino acids are colored according to the RasMol color scheme, and similarities are indicated according to the BLOSUM substitution matrix.
Plasmids were transiently transfected into HEK293 cells using Lipofectamine 2000 (Thermo Fisher, Waltham, MA, USA) according to the manufacturer’s instructions. For each well of a 6-well plate, 5 µg plasmid and 10 µL Lipofectamine 2000 were used.
Next, 48 h after transfection, cells were washed once with ice-cold PBS, scraped off into 2 mL PBS, and pelleted via centrifugation at 700× g for 5 min at 4 °C. The resulting cell pellet was frozen. Later, the pellet was thawed and resuspended in 0.5 mL of lysis buffer 50 mM Tris-HCL (pH 8.0) (Sigma-Aldrich, T3253, St. Louis, MO, USA), 1 mM MgCl2, and Complete ULTRA protease inhibitor cocktail (Roche, 05892970001, Basel, Switzerland). The lysate was then centrifuged at 20.000× g for 10 min at 4 °C to remove nuclei and membranes. Then, 0.05% Tween20 (Sigma-Aldrich, P2287) (final concentration) was added to the supernatant containing the cytosolic PDE1 before it was aliquoted and snap frozen.
PDE activity was measured using a scintillation proximity assay (SPA)-based method, similar to that previously described. Briefly, assays were conducted in 96-well plates using a buffer containing 40 mM Hepes (pH 7.2), 140 mM KCl, and 1.5 mM MgCl2. In each well, 0.005–0.05 µL PDE lysate was mixed with or without final concentrations of 50 µM CaCl2 and 50 nM calmodulin (Sigma-Aldrich, P1431) in a volume of 55 µL, and allowed to stand for 5 min at room temperature. Lysate amounts were adjusted to ensure that less than 30% of the tritiated substrate was hydrolyzed. Next, 10 µL tritiated cyclic nucleotide substrate ([3H]-cGMP for PDE1 and [3H]-cAMP for PDE4 and the PDE1/4 chimera) was added, and the reaction was allowed to proceed for 1 h at room temperature before 15 µL of 8 mg/mL phosphodiesterase SPA beads (Perkin Elmer, RPNQ0150, Shelton, CT, USA) was added. After another hour at room temperature to allow binding of the reaction products to the beads, the plates were counted for 2 min using a liquid scintillation counter (Wallac Trilux, Turku, Finland). […] To avoid overestimating inhibition, PEP1-sol was also tested by adding it after reaction termination (i.e., after SPA bead addition) in concentration–response experiments, and pre-addition inhibition minus post-addition (apparent) inhibition at each concentration was used for IC50 calculations.
To test whether the regulatory domains are functionally transferable, we generated and expressed a PDE1/4 chimera with the regulatory domain from PDE1B fused to the catalytic domain from PDE4D (Figure S1).

[2] = system: PDE4 UCR2-containing isoforms; conditions: cited from earlier work
Description: For PDE4, the longer isoforms that contain the N-terminal upstream conserved regions (UCR1 and UCR2) are activated by phosphorylation via the cAMP-activated protein kinase A (PKA), providing feedback regulation. […] To test whether the regulatory domains are functionally transferable, we generated and expressed a PDE1/4 chimera with the regulatory domain from PDE1B fused to the catalytic domain from PDE4D (Figure S1). […] Rolipram is a selective PDE4 inhibitor with higher potency towards PD ...

[3] = Solubility of inhibitory domain peptides; assay type: physicochemical
[4] = target: T1, PDE1B catalytic domain (PDE1B-cata) (Homo sapiens, UniProt Q01064); assay: Inhibition of PDE1B-cata enzyme activity by inhibitory domain peptides added in trans (SPA); assay type: biochemical; conditions: [3H]-cGMP, pH 7.2, 1 h, room temperature, post-addition (apparent) inhibition subtracted, average ± SEM from 3 independent experiments
T1 construct: compared to the PDE1B catalytic domain (PDE1B-cata; 146–536); added initiator methionine (single Met before residue 146); made in house; host or cells: HEK293 cells, transiently transfected with pcDNA3.1(+) construct; cleared cytosolic lysate used, not purified
T1 sequence (Q01064 146-536): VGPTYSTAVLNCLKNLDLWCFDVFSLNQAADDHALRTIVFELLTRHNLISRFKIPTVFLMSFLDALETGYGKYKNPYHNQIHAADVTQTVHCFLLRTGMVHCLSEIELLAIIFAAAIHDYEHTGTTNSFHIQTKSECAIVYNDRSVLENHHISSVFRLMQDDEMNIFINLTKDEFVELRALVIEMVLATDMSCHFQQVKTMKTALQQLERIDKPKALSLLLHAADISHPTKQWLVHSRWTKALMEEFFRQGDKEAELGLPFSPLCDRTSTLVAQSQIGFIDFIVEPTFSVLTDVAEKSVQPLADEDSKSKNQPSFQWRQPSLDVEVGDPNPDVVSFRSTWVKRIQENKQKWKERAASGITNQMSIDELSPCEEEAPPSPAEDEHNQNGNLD
Description: as §1, with “Alignments were generated using Geneious Prime (v 2024.0.7). Amino acids are colored according to the RasMol color scheme, and similarities are indicated according to the BLOSUM substitution matrix.” left out
(§2) PDE activity was measured using a scintillation proximity assay (SPA)-based method, similar to that previously described. […] After another hour at room temperature to allow binding of the reaction products to the beads, the plates were counted for 2 min using a liquid scintillation counter (Wallac Trilux, Turku, Finland). […] Since absorbance was low, this had only a minor impact on IC50 estimates. […]

PDE1B_82–501 = assay: Calcium/calmodulin activation of PDE1B_82–501 (SPA); assay type: biochemical, human; conditions: 50 nM calmodulin and 50 µM CaCl2; deletion of 35 amino acids from C-terminal
Description: as §1, with “Alignments were generated using Geneious Prime (v 2024.0.7). Amino acids are colored according to the RasMol color scheme, and similarities are indicated according to the BLOSUM substitution matrix.” left out
as §2

Effect of calcium/calmodulin activation on roflumilast IC50 towards chimera (in words) ([1]; 3-4 independent experiments): unaffected by
Molecule: O=C(Nc1c(Cl)cncc1Cl)c1ccc(OC(F)F)c(OCC2CC2)c1 [roflumilast]
Roflumilast IC50 towards chimera compared with PDE4Dcata (in words) ([1]; 3-4 independent experiments, one-way ANOVA with Sidak's): not significantly different from PDE4D catalytic domain | Inhibition of PDE1/4 chimera activity (in words) [1]: could be inhibited; also recorded: inhibits the PDE1/4 chimera

Molecule: COc1ccc(C2CNC(=O)C2)cc1OC1CCCC1 (stereo not shown) [rolipram]
Rolipram affinity for UCR2-containing isoforms compared to the catalytic domain alone (in words) ([2]; compared to the catalytic domain alone): higher affinity | Rolipram potency towards PDE4 isoforms containing regulatory domains (in words) ([2]; selective PDE4 inhibitor): higher potency towards PDE4 isoforms containing regulatory domains | Inhibition of PDE1/4 chimera activity (in words) [1]: could be inhibited | Rolipram potency on PDE1/4 chimera relative to PDE4D catalytic domain (in words) [1]: inhibited the PDE1/4 chimera more potently than the PDE4D catalytic domain | Rolipram potency on PDE1/4 chimera relative to PDE4D catalytic domain (in words) ([1]; listed as Rolipram): inhibits the PDE1/4 chimera more potently than the PDE4D catalytic domain alone | Rolipram affinity/potency boost on calcium/calmodulin-activated PDE1/4 chimera (in words) [1]: affinity boost was lost when the chimera was activated by calcium/calmodulin | Rolipram affinity/potency boost on calcium/calmodulin-activated PDE1/4 chimera (in words) ([1]; listed as Rolipram): increased potency is lost upon activation of the chimera by calcium/calmodulin

Solubility (in words) [3]: more soluble variant | IC50 [4]: 17.9 ± 2.1 µM
Molecule: SDEVPSEVRDWLASTFTRQ [PEP1-sol]

Molecule: calmodulin
Calmodulin regulation of PDE1B_82–501 (in words) (PDE1B_82–501): no impact on calmodulin regulation of activity
